Measurements from US20090030037A1, “Sustained Release Formulation and Dosing Schedules of Leukotriene Synthesis Inhibitor for Human Therapy” (deCODE Genetics ehf., priority 2005, published 2009).
Entries after “also recorded” stand apart in the source; their conditions may differ. Like-named read-outs stand apart in the source and are kept apart here.

Columns and labels:
CRP = test: Study DG-031-201: Hs-CRP in serum; assay type: in vivo, human; conditions: for CRP, change: Study 201, 2-6 wks
Description: (§1) Genet. 2004). Apart from FLAP, allele A of the SNP SG12S25 in the LTA4 hydrolase gene, another gene in the LT pathway, is also associated with MI, as described in PCT application no. PCT/US03/32556 and PCT/US04/30582 incorporated by reference.
(§2) Patients who met the study eligibility criteria were enrolled and randomized into 3 different dose-level groups: (1) 64 patients on 250 mg/day therapy with DG-031 (250 mg q.d.), vs placebo; (2) 64 patients on 500 mg/day therapy with DG-031 (250 mg b.i.d.) vs placebo; and (3) 63 patients on 750 mg/day therapy with DG-031 (250 mg t.i.d.) vs placebo. […] All patients received 3 tablets per day. Treatment periods, 4 weeks in duration each, were separated by a 2-week washout period. The placebo tablets were identical in shape, color, form and taste to the active tablets except that they contained no active drug ingredients. Treatment with DG-031 or placebo was in addition to the subject's standard care, including all medications and treatment plan as prescribed by the subject's cardiologist prior to enrolment. A total of 191 subjects were enrolled, with 172 completing all 8 visits or 8 patients short of the target of 180 patients.
The primary objective was to determine whether the FLAP inhibitor has a statistically significant effect, compared to placebo, on one or more biomarkers of MI risk, including: (1) ionomycin-induced LTB4 and MPO release by neutrophils ex vivo; (2) MPO, CRP, N-tyrosine, Lp-PLA2 or amyloid A in serum, or (3) LTE4 in urine. The secondary objective was to determine whether the effect of DG-031 was dose-dependent. The tertiary objective was to assess other biomarkers (See Results). Evaluation of safety and tolerability of the drug was also a primary endpoint.
All data were analyzed according to a pre-established statistical analysis plan (SAP) and by intention-to-treat (ITT). Each arm of the study, as well as pooled sets (combining dose levels), was considered for the primary analysis. Each such set is an AB/BA cross-over design and in the primary analysis of efficacy, the levels of biomarkers of MI risk at the end of the treatment periods (visits 4 and 7) were used as primary response variables. The difference between DG-031 and placebo treatment was the primary outcome, assessed separately for each of the biomarkers. Treatment effect was tested using a two-sample t-test on the period differences for suitably transformed response variables, under an assumption of normality of the transformed data. We report treatment effect as one half of the observed mean differences in the two-sample t-test, with a 95% CI. No pre-tests for carry-over effect were performed as a part of the primary analysis. Tests for carry-over were done and are reported separately from results of primary analysis. All hypotheses were tested at a two-sided nominal significance level of 0.05 and p-values based on t-tests are reported. In addition, for the primary efficacy endpoints where the effects of the two highest doses on 10 primary variables were studied, a randomization test was performed which corrects for multiple testing and ensures that the key results are not affected by distributional concerns. In particular, 1 million permutations of the patients into the different study tracks were performed, generating a reference distribution for the maximum of the 10 t-statistics of the biomarkers under the null hypothesis of no drug effect. By comparing the observed t-statistic of each of the 10 biomarkers to this reference distribution, empirical p-values were computed. As was stated in the SAP prior to unblinding, it was considered likely that experimental manipulations would alter the effect of the drug on two of the primary markers; this was indeed the case and we are only reporting directly on 8 of the 10 primary markers but all 10 are included in the randomization test. […]

Lp-PLA2 = test: Study DG-031-201: Lp-PLA2; assay type: in vivo, human; conditions: 2 lower doses (250 mg/day and 500 mg/day)
Description: as §1
as §2, with “A total of 191 subjects were enrolled, with 172 completing all 8 visits or 8 patients short of the target of 180 patients.” left out
All data were analyzed according to a pre-established statistical analysis plan (SAP) and by intention-to-treat (ITT). […] The difference between DG-031 and placebo treatment was the primary outcome, assessed separately for each of the biomarkers. […]

[1] = Study DG-031-204: adverse events; assay type: in vivo; conditions: for SAE Description: single patients
Description: An additional single site, open label study was carried out to obtain biomarker and safety data on additional DG-031 doses (i.e., 1000 mg and 1500 mg). This study examined the safety, tolerability and dose-related effects of DG-031 on inflammatory biomarkers including: LTB4, hsCRP, and MPO. A total of 119 patients with a prior history of CAD and MI were randomized to receive either 1000 mg DG-031 (500 mg BID) or 1500 mg DG-031 (500 mg TID) daily for 4-6 weeks. Treatment with DG-031 in addition to the subject's standard care, medication, and treatment, was prescribed by the patient's cardiologist. A majority of the subjects received statin therapy before, during and after the study. Follow-up assessments were performed 2 weeks after the end of study drug administration.
A total of 5 patients reported 8 serious adverse events (SAE). One death was reported during the trial. All SAE's were consistent with underlying CAD disorders (see Table 16). A total of 88 of 119 patients reported 203 adverse events. The most commonly reported adverse events (and number of cases reported) included: cold (27), headache (13), constipation/diarrhea (6/8), and vertigo (5).

LTB4 = test: Exposure-response analysis: estimated reduction in stimulated LTB4 by DG-031 daily dose; assay type: in vivo, human; conditions: for Estimated Percent LTB4 Reduction by DG-031 Daily Dose, Mean: stimulated LTB4, mean model prediction from studies DG-031-201 and DG-031-203
Description: Administration of DG-031 500 mg BID reduced LTB4 levels to the target 35% reduction, as measured in the ionophore-stimulation assay described in Example 1. The estimated DG-031-induced reduction in stimulated LTB4 levels was based on all the relevant data observed in the DG-031-201 and DG-031-203 studies. The control baseline was 7.8%. The data presented in Table 14 are the mean and the 5th and 95th percentiles based on the mean model prediction (the 90% confidence interval on the estimated LTB4 response).
The pharmacokinetic characteristics of the tested DG-031 formulation result in an observed mean peak concentrations of 8.8 μg/mL and mean trough concentrations of 4.3 μg/mL. (Table 18) The characteristics of the tested formulation leads to prolonged drug absorption that minimizes the peak to trough fluctuation in DG-031 plasma concentration and LTB4 response.

[2] = asthma patients, cited from earlier work
[3] = 119 patients, 500 mg BID or TID, 4-6 weeks

## O=C(O)[C@@H](c1ccc(OCc2ccc3ccccc3n2)cc1)C1CCCC1 [DG-031, (R)-(+)-alpha-cyclopentyl-4-(2-quinolinylmethoxy)-Benzeneacetic acid]
CRP; 250 mg BID and TID, end of wash-out period (week 6)
  Reduction in CRP: 25%
CRP; 250 mg BID
  CRP, change: −24%
CRP; 250 mg QD
  CRP, change: −6%
CRP; 250 mg TID
  CRP, change: −13% (St. 201)
CRP; difference visit 2 to 5, 500 and 750 mg/day vs placebo
  Carry-over effect, CRP: −0.28
CRP; higher two dose groups (250 mg BID and 250 mg TID), at 2 weeks, p=0.07
  Reduction of serum CRP: 16%
Lp-PLA2
  Effects on Lp-PLA2: not significant
[1]; 1000 mg treatment
  SAE Description: Cardiac arrest,; also recorded: Subarachnoid hemorrhage; also recorded: Angiography,; also recorded: Repair of Carotid artery; also recorded: Myocardial infarction; also recorded: Unstable angina; also recorded: Myocardial infarction,
[1]; 1500 mg treatment
  SAE Description: Congestive heart failure
[1]; 119 patients
  Adverse events reported: 203
  Cases of cold: 27
  Cases of constipation: 6
  Cases of diarrhea: 8
  Cases of headache: 13
  Cases of vertigo: 5
[1]; 119 patients, 500 mg BID or TID
  Deaths reported during the trial: One
[1]; [3]
  Patients reporting serious adverse events: 5
  Serious adverse events (SAE) reported: 8
[1]; of 119 patients
  Patients reporting adverse events: 88
LTB4; 500 mg BID (1000 mg daily)
  Average drug exposure: 7.6 µg/mL
LTB4; 500 mg BID, 90% prediction interval −45% to −24%
  Reduction in stimulated LTB4 production: 37%
LTB4; daily dose 250
  Estimated Percent LTB4 Reduction by DG-031 Daily Dose, Mean: −8.7%
LTB4; daily dose 500
  Estimated Percent LTB4 Reduction by DG-031 Daily Dose, Mean: −19.4%
LTB4; daily dose 750
  Estimated Percent LTB4 Reduction by DG-031 Daily Dose, Mean: −28.8%
LTB4; daily dose 1000
  Estimated Percent LTB4 Reduction by DG-031 Daily Dose, Mean: −37.1%
LTB4; daily dose 1250
  Estimated Percent LTB4 Reduction by DG-031 Daily Dose, Mean: −44.5%
LTB4; daily dose 1500
  Estimated Percent LTB4 Reduction by DG-031 Daily Dose, Mean: −50.9%
[2]; total daily dose 250-1000 mg, 14 days
  Safety and tolerability: safe and well tolerated
[2]; total daily doses 100-1000 mg, 14-42 days
  Safety and tolerability: safe and well tolerated
